Measured values: patent US12686687B2, “Compounds and uses thereof” (Foghorn Therapeutics Inc., priority 2019, dated 2026)
Entries after “also recorded” stand apart in the source; their conditions may differ.

Experiments:
Format in all cases: cell-based, human
[1] = test system: synovial sarcoma cell lines (SYO1, Yamato, HS-SY-II, and ASKA); assay: Growth of synovial sarcoma cell lines (IncuCyte confluency, crystal violet staining, colony imaging); details: 1 μM or indicated concentrations (FIGS. 5-7)
Method: (§1) Cells were treated with DMSO or the BRD9 degrader, Compound 1, at indicated concentrations, and proliferation was monitored from day 7 to day 14 by measuring confluency over time using an IncuCyte live cell analysis system (FIG. 5). Growth medium and compounds were refreshed every 3-4 days.
(§2) Cells were seeded into 12-well plates and treated with DMSO, 1 μM BRD9 inhibitor, Compound 2 (also known as BI-7273, see Martin et al, J Med Chem. 59(10):4462-4475 (2016); see structure of compound 2 below), or 1 μM BRD9 degrader, Compound 1.
(§3) The number of cells was optimized for each cell line. Growth medium and compounds were refreshed every 3-5 days. SYO1, Yamato, A549, 293T and HS-SY-II cells were fixed and stained at day 11. ASKA cells were fixed and stained at day 23. Staining was done by incubation with crystal violet solution (0.5 g Crystal Violet, 27 ml 37% Formaldehyde, 100 mL 10×PBS, 10 mL Methanol, 863 dH2O to 1 L) for 30 minutes followed by 3× washes with water and drying the plates for at least 24h at room temperature. Subsequently plates were scanned on an Odyssey CLx Imaging system (FIG. 6).
(§4) Cells were seeded into 96-well ultra low cluster plate (Costar, #7007) in 200 μL complete media and treated at day 2 with DMSO, Staurosporin, or BRD9 degrader, Compound 1, at indicated doses (FIG. 7).

[2] = test system: non-synovial control cancer cell lines (293T, A549, G401); assay: Growth of non-synovial control cancer cell lines (crystal violet staining, colony imaging); details: 1 μM or indicated doses (FIGS. 5-7)
Method: as §1, §2, §3, §4

[3] = test system: synovial sarcoma cell lines (SYO1, HS-SY-II, and ASKA); assay: Growth of synovial sarcoma cell lines, daily treatment, crystal violet at day 14; details: treated daily, day 14 (FIG. 8)
Method: (§5) Procedure: Cells were seeded into 6-well or 12-well plates and were treated daily with a BRD9 degrader (Compound 1), a bromo-domain BRD9 binder (Compound 2), E3 ligase binder (lenalidomide), DMSO, or staurosporin (positive control for cell killing), at indicated concentrations. The number of cells was optimized for each cell line. Growth media was refreshed every 5 days. By day 14, medium was removed, cells were washed with PBS, and stained using 500 μL of 0.005% (w/v) crystal violet solution in 25% (v/v) methanol for at least 1 hour at room temperature.

[4] = test system: non-synovial control cancer cell lines (RD, HCT116, and Calu6); assay: Growth of non-synovial control cancer cell lines, daily treatment, crystal violet at day 14; details: treated daily, day 14 (FIG. 9)
Method: as §5

SYO1 cells [5] = assay: Cell cycle analysis (Click-iT Plus EdU flow cytometry) in SYO1 cells; details: SYO1, 200 nM or 1 μM, 8 or 13 days, compared to DMSO and lenalidomide
Method: (§6) Procedure: SYO1 cells were treated for 8 or 13 days with DMSO, a BRD9 degrader (Compound 1) at 200 nM or 1 μM, or an E3 ligase binder (lenalidomide) at 200 nM. Compounds were refreshed every 5 days. Cell cycle analysis was performed using the Click-iT™ Plus EdU Flow Cytometry Assay (Invitrogen). The apoptosis assay was performed using the Annexin V-FITC Apoptosis Detection Kit (Sigma A9210).

SYO1 cells [6] = assay: Apoptosis assay (Annexin V-FITC) in SYO1 cells; details: SYO1, 200 nM or 1 μM, 8 days, compared to DMSO controls
Method: as §6

Structure (SMILES) | inhibition of cell growth [1] | inhibition of cell growth [2] | inhibition of cell growth [3] | inhibition of cell growth [4] | cells in the S-phase of the cell cycle (SYO1 cells [5]) | early- and late-apoptotic cells (SYO1 cells [6])
COc1cc(-c2cn(C)c(=O)c3cnccc23)cc(OC)c1CN(C)CC(=O)NCCOCCOCCNc1cccc2c1C(=O)N(C1CCC(=O)NC1=O)C2=O (stereo not shown) [Compound 1] | inhibition of the growth of the cells | does not result in inhibition of the growth | inhibition of the growth of the cells; also recorded: most significant growth inhibition | did not result in inhibition of the growth | reduced numbers of cells in the S-phase | increased numbers of early- and late-apoptotic cells
COc1cc(-c2cn(C)c(=O)c3cnccc23)cc(OC)c1CN(C)C [Compound 2] | inhibition of the growth of the cells | does not result in inhibition of the growth | inhibition of the growth of the cells | did not result in inhibition of the growth |  | 
